This is an account of results in patent US6653135B1, “Dynamic protein signature assay” (University of Maryland, priority 2000, dated 2003).

Experiment [1] deals with Mytilus edulis gill tissue. Kind of experiment: Protein expression changes in gill tissue by 2D electrophoresis after 24 h exposure.
Method: Gill tissue previously flash frozen in liquid nitrogen was mechanically homogenized in cold buffer containing phenyl-methylsulfonyl fluoride and dithiothreotol (PMSF and DTT, protease inhibitors). Cellular debris was removed by centrifugation (13000×g for 5 min). Total protein concentration of the supernatant containing the soluble protein fraction was determined using the Bradford method.
Spots on each gel were detected and compared using Medical Electrophoresis Analysis Interactive Expert System (MELANIE II™) 2D analysis software (Biorad). […] Those spots detectable on the treatment composites only were considered present. Each spot of interest, present or absent, on the treatment composites was identified on all original gels from a treatment group before being considered part of the protein expression signature.
Experiment [2] concerns Mytilus edulis. The experiment is described as follows: Protein expression signature by 2D electrophoresis of whole body homogenate after 7 day exposure.
Method: Protein expression signatures, including those proteins induced and those proteins suppressed by exposure, were isolated for each treatment group.
Eight blue mussels Mytilus edulis 2-3 cm in size were collected from a natural population 3M deep. Ambient salinity and temperature were a salinity of 6.3 ppt and a temperature of 7° C. The mussels were put in tanks for acclimation for 24 hours at the same temperature and salinity as collection. […] Water was changed every other day and continuously aerated. At the end of the 7 day exposure, mussels were removed from the shell and flash frozen in liquid nitrogen before being freeze dried for later analysis.
Freeze dried whole body tissue was mechanically homogenized in cold buffer containing phenyl-methylsulfonyl fluoride and dithiothreotol (PMSF and DTT, protease inhibitors) and tris buffer pH 5.5. After mechanical homogenization, samples were boiled to further break down cells, and cellular debris was removed by centrifugation (13000×g for 5 min). Total protein concentration was determined using methods based on the Bradford method (Biorad).
The supernatant containing the soluble protein fraction was separated using two dimensional electrophoresis (Biorad Miniprotean II™). […] Gels from each treatment were compared for changes in pattern and key components using Medical Electrophoresis Analysis Interactive Expert System (MELANIE II™) 2D analysis software (Biorad) and data compiled using a database developed by this laboratory. Composite gels were produced from each treatment set and compared to one another. Proteins uniquely present (induced (expressed)) or absent (suppressed) in each treatment were identified. Those present or absent in all the original component gels were included in the protein expression signature (PES) for each treatment.
The mark [3] stands for this setting: 20, 40, 60, 80 ppb CuSO4, 24 hrs.
[4] abbreviates: 7 days exposure, 70 ppb copper, 1 ppb Aroclor 1248, whole body.
[5] abbreviates: signature proteins also found with 70 ppb copper combined with lowered salinity (3 ppt), 7 days.

Turning to `O=S(=O)([O-])[O-].[Cu+2]` [CuSO4, copper sulfate], the “Protein spots absent at all treatment levels compared to controls” value in experiment [1] (setting [3]) stood at 2 spots. For the same compound, the “Protein spots present at all treatment levels compared to controls” value in experiment [1] (setting [3]) came out at 11 protein spots. The “Key Protein Changes (number of key proteins present and absent specifically)” value is 27 in experiment [1] (20 ppb CuSO4, 24 hrs, gill tissue); 14 in experiment [1] (40 ppb CuSO4, 24 hrs, gill tissue); 19 in experiment [1] (60 ppb CuSO4, 24 hrs, gill tissue); 10 in experiment [1] (80 ppb CuSO4, 24 hrs, gill tissue). Moreover, the “Number of proteins specifically absent at a single dosage level” value in experiment [1] (20 ppb, 24 hrs) was 14 protein spots; in experiment [1] (80 ppb, 24 hrs), 6 protein spots. In experiment [1] (All Dosages (20, 40, 60, 80 ppb CuSO4), 24 hrs, gill tissue), the “Key Protein Changes (number of key proteins present and absent)” value is 13.

As to `[Cu]` [Copper, copper], the “Proteins of the signature identified in organisms treated with copper and lowered salinity simultaneously” value in experiment [2] (70 ppb copper plus salinity 3 ppt, 7 days) is on record as “Five”. The “Protein expression signature (induced and suppressed), number of proteins” value in experiment [2] (7 days exposure, 70 ppb copper, 1 ppb Aroclor 1248) was 23 proteins. In experiment [2] (setting [4]), the “Unique Induction: number of proteins specifically induced (present)” value was 13 proteins and the “Unique Suppression: number of proteins specifically suppressed (absent)” value worked out at 10 proteins. Also, in experiment [2] (setting [5]), the “Copper/Salinity shared signal, induced proteins” value was 3 proteins and the “Copper/Salinity shared signal, suppressed proteins” value is given as 2 proteins.
